Measurements taken from US7074789B2, “Kinase inhibitors” (Amgen Inc., priority 1999, dated 2006).

Legend:
Assay type in all cases: biochemical
Fyn = target: T1, Fyn (Homo sapiens, UniProt P06241); test: Kinase inhibition assay (33P transfer), Fyn; conditions: read-out: Fyn-1
T1 construct: Kinases are expressed as either kinase domains or full length constructs; made in house
In short: (§1)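 Using immobilised substrate copolymers (poly(Glu,Tyr) 4:1; poly(Arg,Ser) 3:1) and [33P]ATP, purified fusion kinases were allowed to react; plates were then rinsed in 0.5% phosphoric acid and counted in a scintillation detector. Half-maximal inhibition of label transfer defines IC50.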

Itk = target: T2, Itk (Homo sapiens, UniProt Q08881); test: Kinase inhibition assay (33P transfer), Itk; conditions: read-out: Itk-1
T2 construct: Kinases are expressed as either kinase domains or full length constructs; made in house
T2 sequence (Q08881 1-620): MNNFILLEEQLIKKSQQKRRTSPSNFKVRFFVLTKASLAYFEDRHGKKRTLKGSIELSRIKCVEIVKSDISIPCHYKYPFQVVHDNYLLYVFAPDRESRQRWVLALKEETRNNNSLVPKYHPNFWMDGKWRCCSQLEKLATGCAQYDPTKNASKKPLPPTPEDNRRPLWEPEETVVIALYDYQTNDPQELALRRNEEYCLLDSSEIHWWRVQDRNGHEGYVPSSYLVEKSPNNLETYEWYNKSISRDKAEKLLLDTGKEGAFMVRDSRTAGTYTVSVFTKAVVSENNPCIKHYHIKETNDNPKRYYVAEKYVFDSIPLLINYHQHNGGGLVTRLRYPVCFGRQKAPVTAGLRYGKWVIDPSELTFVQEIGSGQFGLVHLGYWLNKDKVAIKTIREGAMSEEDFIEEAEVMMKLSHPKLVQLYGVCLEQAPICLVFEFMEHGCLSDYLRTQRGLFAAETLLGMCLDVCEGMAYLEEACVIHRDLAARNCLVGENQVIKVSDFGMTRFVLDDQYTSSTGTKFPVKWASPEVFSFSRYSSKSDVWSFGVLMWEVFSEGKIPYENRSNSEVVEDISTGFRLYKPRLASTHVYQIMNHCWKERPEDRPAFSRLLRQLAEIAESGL
In short: as §1

Lck = target: T3, Lck (Homo sapiens, UniProt P06239); test: Kinase inhibition assay (33P transfer), Lck; conditions: read-out: Lck-1
T3 construct: Kinases are expressed as either kinase domains or full length constructs; made in house
T3 sequence (P06239 whole entry, species assumed, the tested form may be a part): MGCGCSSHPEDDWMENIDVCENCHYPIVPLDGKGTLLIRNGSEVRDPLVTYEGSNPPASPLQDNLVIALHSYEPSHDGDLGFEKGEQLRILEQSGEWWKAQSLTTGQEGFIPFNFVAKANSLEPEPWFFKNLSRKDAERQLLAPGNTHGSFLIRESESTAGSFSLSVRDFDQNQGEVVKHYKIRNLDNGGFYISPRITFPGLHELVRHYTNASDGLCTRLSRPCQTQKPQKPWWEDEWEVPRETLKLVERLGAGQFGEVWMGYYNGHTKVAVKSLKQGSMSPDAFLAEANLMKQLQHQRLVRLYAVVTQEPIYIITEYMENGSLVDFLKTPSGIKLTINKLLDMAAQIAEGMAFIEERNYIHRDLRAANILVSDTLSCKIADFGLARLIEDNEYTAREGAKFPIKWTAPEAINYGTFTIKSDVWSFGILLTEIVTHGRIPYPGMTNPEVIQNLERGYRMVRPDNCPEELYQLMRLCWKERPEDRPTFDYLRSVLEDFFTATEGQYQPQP
In short: (§2)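 Steps: express kinase as GST or polyHistidine fusion in E. coli or High Five cells; optionally co-express or mix with regulatory polypeptides; incubate with 33P-ATP and plate-attached poly(Glu,Tyr) 4:1 or poly(Arg,Ser) 3:1; wash with 0.5% phosphoric acid; count by liquid scintillation.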

AKT = target: T4, AKT (Homo sapiens, UniProt Q9Y243); test: Kinase inhibition assay (33P transfer), AKT; conditions: Table 2, kinase inhibition class; read-out: AKT3-1
T4 construct: Kinases are expressed as either kinase domains or full length constructs; made in house
T4 sequence (Q9Y243 whole entry, the tested form may be a part): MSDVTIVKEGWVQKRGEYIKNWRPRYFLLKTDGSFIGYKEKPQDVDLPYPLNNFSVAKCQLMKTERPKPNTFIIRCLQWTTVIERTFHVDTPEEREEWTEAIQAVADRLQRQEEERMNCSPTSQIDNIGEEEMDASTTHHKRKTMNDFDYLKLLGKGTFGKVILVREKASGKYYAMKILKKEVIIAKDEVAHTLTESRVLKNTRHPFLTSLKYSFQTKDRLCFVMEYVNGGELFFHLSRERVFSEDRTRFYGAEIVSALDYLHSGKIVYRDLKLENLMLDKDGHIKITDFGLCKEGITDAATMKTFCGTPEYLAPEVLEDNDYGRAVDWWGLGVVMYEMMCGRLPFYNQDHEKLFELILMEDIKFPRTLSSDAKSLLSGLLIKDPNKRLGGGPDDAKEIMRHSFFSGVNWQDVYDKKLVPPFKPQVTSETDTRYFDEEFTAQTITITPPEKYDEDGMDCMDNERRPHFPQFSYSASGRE
In short: as §2

Lyn = target: T5, Lyn (Homo sapiens, UniProt P07948); test: Kinase inhibition assay (33P transfer), Lyn; conditions: Table 6, Lyn-1 kinase inhibition class
T5 construct: Kinases are expressed as either kinase domains or full length constructs; made in house
T5 sequence (P07948 whole entry, species assumed, the tested form may be a part): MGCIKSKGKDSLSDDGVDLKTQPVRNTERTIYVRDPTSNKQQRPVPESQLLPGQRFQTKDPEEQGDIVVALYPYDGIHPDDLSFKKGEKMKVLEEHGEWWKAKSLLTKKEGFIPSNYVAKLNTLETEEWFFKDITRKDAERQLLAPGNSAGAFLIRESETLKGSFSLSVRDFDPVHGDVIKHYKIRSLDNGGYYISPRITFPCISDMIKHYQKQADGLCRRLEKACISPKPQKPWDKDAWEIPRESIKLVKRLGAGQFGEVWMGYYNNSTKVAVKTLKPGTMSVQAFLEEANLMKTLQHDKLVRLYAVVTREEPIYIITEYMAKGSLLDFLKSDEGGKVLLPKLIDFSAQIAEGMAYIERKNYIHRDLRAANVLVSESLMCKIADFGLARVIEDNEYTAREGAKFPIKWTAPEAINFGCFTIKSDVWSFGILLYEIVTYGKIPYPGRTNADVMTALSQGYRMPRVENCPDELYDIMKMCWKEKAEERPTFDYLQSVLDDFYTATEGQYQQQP
In short: as §1

Src = target: T6, Src (Homo sapiens, UniProt P12931); test: Kinase inhibition assay (33P transfer), Src; conditions: Table 6, Src-1 kinase inhibition class
T6 construct: Kinases are expressed as either kinase domains or full length constructs; made in house
In short: as §1

Flt-1 = target: T7, Flt-1 (Homo sapiens, UniProt P17948); test: Kinase inhibition assay (33P transfer), Flt-1
T7 construct: Kinases are expressed as either kinase domains or full length constructs; made in house
In short: as §1

FGFR1 = target: T8, FGFR1 (Homo sapiens, UniProt P11362); test: Kinase inhibition assay (33P transfer), FGFR1; conditions: read-out: FGFR1-1
T8 construct: Kinases are expressed as either kinase domains or full length constructs; made in house

ErbB2 = target: T9, ErbB2 (Homo sapiens, UniProt P04626); test: Kinase inhibition assay (33P transfer), ErbB2; conditions: read-out: ErbB2-2
T9 construct: Kinases are expressed as either kinase domains or full length constructs; made in house
In short: as §1

ErbB4 = target: T10, ErbB4 (Homo sapiens, UniProt Q15303); test: Kinase inhibition assay (33P transfer), ErbB4; conditions: read-out: ErbB4-1
T10 construct: Kinases are expressed as either kinase domains or full length constructs; made in house

PDGFRB = target: T11, PDGFRB (Homo sapiens, UniProt P09619); test: Kinase inhibition assay (33P transfer), PDGFRB; conditions: read-out: PDGFRB-1
T11 construct: Kinases are expressed as either kinase domains or full length constructs; made in house

Zap-70 = target: T12, Zap-70 (Homo sapiens, UniProt P43403); test: Kinase inhibition assay (33P transfer), Zap-70; conditions: read-out: Zap-1
T12 construct: Kinases are expressed as either kinase domains or full length constructs; made in house
T12 sequence (P43403 1-619): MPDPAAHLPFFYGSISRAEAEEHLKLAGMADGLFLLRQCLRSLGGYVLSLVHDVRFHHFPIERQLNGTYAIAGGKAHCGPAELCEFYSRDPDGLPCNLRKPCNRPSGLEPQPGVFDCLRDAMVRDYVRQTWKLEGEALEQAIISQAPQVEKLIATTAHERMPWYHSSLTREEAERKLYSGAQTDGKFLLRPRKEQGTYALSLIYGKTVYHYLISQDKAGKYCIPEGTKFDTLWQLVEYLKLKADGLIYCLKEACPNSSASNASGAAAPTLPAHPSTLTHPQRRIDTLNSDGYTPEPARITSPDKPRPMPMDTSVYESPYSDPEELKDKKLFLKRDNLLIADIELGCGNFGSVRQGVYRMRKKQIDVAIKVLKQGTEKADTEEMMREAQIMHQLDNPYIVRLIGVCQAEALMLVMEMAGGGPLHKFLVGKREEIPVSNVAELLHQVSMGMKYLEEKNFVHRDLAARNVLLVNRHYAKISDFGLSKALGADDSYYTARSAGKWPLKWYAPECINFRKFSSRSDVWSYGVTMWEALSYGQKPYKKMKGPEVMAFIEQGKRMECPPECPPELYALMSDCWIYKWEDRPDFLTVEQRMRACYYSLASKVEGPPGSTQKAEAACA
In short: as §2

IGFR-1 = target: T13, IGFR-1 (Homo sapiens, UniProt P08069); test: Kinase inhibition assay, IGFR-1 (Table 2); conditions: Table 2, kinase inhibition class
T13 construct: Kinases are expressed as either kinase domains or full length constructs; made in house

c-Met = target: T14, c-Met (Homo sapiens, UniProt P08581); test: Kinase inhibition assay (33P transfer), c-Met; conditions: Table 2, kinase inhibition class; read-out: Met-1
T14 construct: Kinases are expressed as either kinase domains or full length constructs; made in house
T14 sequence (P08581 25-1390): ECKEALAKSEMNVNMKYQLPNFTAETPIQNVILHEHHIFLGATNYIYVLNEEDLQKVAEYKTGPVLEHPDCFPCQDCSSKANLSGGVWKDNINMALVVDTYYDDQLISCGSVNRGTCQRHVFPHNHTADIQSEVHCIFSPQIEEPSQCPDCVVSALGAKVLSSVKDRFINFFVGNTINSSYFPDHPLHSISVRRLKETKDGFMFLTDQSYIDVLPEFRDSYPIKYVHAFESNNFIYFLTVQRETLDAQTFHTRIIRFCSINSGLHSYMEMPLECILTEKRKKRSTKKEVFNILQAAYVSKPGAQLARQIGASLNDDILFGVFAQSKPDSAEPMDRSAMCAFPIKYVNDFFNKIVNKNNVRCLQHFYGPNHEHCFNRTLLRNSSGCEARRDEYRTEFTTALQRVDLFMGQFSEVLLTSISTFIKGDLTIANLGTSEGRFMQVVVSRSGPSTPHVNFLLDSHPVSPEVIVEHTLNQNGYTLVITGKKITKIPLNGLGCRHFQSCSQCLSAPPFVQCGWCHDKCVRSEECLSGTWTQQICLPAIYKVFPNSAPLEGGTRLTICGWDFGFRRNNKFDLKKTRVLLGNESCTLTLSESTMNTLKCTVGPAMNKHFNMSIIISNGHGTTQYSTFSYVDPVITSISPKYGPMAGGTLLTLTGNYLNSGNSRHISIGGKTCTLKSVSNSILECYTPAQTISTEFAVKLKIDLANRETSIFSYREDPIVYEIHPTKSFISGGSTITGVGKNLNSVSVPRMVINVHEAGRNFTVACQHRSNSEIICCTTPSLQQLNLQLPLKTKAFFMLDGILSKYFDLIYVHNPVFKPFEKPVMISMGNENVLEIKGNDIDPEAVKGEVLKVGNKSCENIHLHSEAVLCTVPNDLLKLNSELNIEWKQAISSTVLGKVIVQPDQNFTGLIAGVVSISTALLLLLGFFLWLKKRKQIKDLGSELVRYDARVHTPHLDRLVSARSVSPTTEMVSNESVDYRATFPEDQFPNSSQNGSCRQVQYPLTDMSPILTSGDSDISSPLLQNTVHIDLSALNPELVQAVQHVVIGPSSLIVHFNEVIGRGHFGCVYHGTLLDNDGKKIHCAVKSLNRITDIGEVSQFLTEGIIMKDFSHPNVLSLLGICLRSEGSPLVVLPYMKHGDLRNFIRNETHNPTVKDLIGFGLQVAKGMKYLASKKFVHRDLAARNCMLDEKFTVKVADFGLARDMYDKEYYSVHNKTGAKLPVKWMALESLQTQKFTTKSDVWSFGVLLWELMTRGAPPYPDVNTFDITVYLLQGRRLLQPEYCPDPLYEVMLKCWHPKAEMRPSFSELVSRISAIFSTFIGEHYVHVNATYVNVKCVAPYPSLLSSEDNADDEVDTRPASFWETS
In short: as §1

Kdr = target: T15, Kdr (Homo sapiens, UniProt P35968); test: Kinase inhibition assay (33P transfer), Kdr; conditions: read-out: KDR-1
T15 construct: Kinases are expressed as either kinase domains or full length constructs; made in house
In short: as §2

Ret-1 = target: T16, Ret-1 (Homo sapiens, UniProt P07949); test: Kinase inhibition assay (33P transfer), Ret; conditions: Table 6, Ret-1 kinase inhibition class
T16 construct: Kinases are expressed as either kinase domains or full length constructs; made in house
T16 sequence (P07949 29-1114): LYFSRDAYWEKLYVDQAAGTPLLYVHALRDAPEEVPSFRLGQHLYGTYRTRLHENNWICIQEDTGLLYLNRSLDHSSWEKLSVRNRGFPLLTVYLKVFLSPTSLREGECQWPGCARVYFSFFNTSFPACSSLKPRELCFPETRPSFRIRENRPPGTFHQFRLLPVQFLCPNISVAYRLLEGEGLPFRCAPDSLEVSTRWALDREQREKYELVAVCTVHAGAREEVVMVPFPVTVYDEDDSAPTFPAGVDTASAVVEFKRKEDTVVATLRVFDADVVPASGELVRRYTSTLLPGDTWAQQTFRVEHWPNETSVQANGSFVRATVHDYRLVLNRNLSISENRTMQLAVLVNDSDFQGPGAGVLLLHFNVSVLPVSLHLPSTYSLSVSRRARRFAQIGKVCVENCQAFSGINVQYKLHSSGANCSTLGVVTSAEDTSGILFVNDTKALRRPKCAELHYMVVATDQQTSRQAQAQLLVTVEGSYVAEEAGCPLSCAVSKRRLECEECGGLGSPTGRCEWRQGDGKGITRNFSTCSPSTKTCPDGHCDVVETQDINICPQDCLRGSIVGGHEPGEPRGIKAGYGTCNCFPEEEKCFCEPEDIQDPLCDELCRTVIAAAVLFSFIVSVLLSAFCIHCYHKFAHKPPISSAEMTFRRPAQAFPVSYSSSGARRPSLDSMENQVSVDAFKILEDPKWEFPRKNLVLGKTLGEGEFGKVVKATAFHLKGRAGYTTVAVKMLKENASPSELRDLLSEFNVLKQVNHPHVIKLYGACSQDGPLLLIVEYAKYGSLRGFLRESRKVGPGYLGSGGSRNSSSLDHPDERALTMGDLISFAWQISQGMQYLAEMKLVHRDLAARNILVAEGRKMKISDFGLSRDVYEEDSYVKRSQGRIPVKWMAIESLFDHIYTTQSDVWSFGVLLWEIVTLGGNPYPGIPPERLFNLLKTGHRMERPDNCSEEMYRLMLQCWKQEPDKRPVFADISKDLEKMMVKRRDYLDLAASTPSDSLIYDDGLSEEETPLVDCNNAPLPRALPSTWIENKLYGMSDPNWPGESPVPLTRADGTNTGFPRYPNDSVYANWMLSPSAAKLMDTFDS

Hck-1 = target: T17, Hck-1 (Homo sapiens, UniProt P08631); test: Kinase inhibition assay (33P transfer), Hck; conditions: Table 6, Hck-1 kinase inhibition class
T17 construct: Kinases are expressed as either kinase domains or full length constructs; made in house

Tek = target: T18, Tek (Homo sapiens, UniProt Q02763); test: Kinase inhibition assay (33P transfer), Tek; conditions: read-out: Tek-1
T18 construct: Kinases are expressed as either kinase domains or full length constructs; made in house
T18 sequence (Q02763 23-1124, species assumed): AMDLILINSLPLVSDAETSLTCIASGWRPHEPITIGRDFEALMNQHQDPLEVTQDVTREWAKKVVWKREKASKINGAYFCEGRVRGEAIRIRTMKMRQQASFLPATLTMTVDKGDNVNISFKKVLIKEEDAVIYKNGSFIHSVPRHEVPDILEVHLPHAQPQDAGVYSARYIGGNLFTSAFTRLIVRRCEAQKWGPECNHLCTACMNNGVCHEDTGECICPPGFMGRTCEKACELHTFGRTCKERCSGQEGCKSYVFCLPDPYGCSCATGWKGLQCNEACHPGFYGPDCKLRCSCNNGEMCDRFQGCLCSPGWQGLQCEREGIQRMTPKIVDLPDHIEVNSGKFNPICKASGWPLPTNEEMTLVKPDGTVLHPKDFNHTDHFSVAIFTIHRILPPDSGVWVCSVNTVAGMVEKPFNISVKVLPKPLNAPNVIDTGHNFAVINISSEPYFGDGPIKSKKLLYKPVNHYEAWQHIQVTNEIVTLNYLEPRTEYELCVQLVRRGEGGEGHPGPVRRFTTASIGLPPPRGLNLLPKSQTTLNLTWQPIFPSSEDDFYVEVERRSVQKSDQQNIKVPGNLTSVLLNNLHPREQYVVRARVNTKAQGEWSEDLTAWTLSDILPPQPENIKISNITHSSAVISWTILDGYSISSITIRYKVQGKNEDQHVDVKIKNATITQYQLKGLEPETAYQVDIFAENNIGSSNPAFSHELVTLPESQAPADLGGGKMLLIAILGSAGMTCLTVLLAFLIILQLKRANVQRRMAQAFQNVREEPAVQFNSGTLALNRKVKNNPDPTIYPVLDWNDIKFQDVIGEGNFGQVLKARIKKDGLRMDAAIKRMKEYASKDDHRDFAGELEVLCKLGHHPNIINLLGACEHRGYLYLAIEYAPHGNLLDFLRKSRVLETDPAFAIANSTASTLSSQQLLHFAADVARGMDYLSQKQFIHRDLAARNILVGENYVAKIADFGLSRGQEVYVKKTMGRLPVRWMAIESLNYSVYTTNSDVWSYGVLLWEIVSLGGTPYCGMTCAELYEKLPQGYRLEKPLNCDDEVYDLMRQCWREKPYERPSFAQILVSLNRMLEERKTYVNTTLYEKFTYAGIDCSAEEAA
In short: as §1

EGFR = target: T19, EGFR (Homo sapiens, UniProt P00533); test: Kinase inhibition assay (33P transfer), EGFR; conditions: Table 2, kinase inhibition class; read-out: EGFR-1
T19 construct: Kinases are expressed as either kinase domains or full length constructs; made in house
In short: as §1

| IC50 (Fyn) | IC50 (Itk) | IC50 (Lck) | IC50 (AKT) | IC50 (Lyn) | IC50 (Src) | IC50 (Flt-1) | IC50 (FGFR1) | IC50 (ErbB2) | IC50 (ErbB4) | IC50 (PDGFRB) | IC50 (Zap-70) | IC50 (IGFR-1) | IC50 (c-Met) | IC50 (Kdr) | IC50 (Ret-1) | IC50 (Hck-1) | IC50 (Tek) | IC50 (EGFR) | SMILES |
| --- | --- | --- | --- | --- | --- | --- | --- | --- | --- | --- | --- | --- | --- | --- | --- | --- | --- | --- | --- |
| 0.817 to 4.9 µM | > 9.19 µM | < 0.817 µM | > 9.19 µM | < 0.817 µM | 0.817 to 4.9 µM | < 0.817 µM | < 0.817 µM | 0.817 to 4.9 µM | 0.817 to 4.9 µM | < 0.817 µM | > 9.19 µM | > 9.19 µM | > 9.19 µM | < 0.817 µM | < 0.817 µM | > 9.19 µM | 4.9 to 7.15 µM | 0.817 to 4.9 µM | COc1cc(Nc2ncnc(-n3c(NCc4cccs4)nc4ccccc43)n2)cc(OC)c1OC [Compound 950] |
| > 9.73 µM | > 9.73 µM | 5.19 to 7.57 µM | > 9.73 µM | > 9.73 µM | > 9.73 µM | > 9.73 µM | 7.57 to 9.73 µM | > 9.73 µM | > 9.73 µM | 5.19 to 7.57 µM | > 9.73 µM | > 9.73 µM | > 9.73 µM | 0.865 to 5.19 µM | 0.865 to 5.19 µM | > 9.73 µM | > 9.73 µM | > 9.73 µM | COc1cc(Nc2ncnc(-c3cccnc3NCc3ccccc3F)n2)cc(OC)c1OC [Compound 1087] |
| 4.54 to 6.62 µM | 6.62 to 8.51 µM | 4.54 to 6.62 µM | > 8.51 µM | < 0.757 µM | 6.62 to 8.51 µM | 0.757 to 4.54 µM | 0.757 to 4.54 µM | 4.54 to 6.62 µM | > 8.51 µM | 0.757 to 4.54 µM | > 8.51 µM | 0.757 to 4.54 µM | > 8.51 µM | < 0.757 µM | < 0.757 µM | 6.62 to 8.51 µM | 4.54 to 6.62 µM | > 8.51 µM | COc1cc(Nc2ncnc(-n3c(NCc4ccc([N+](=O)[O-])cc4)nc4ccccc43)n2)cc(OC)c1OC [Compound 952] |

Second part, the compound before the results:

| SMILES | IC50 (Fyn) | IC50 (Itk) | IC50 (Lck) | IC50 (AKT) | IC50 (Lyn) | IC50 (Src) | IC50 (Flt-1) | IC50 (FGFR1) | IC50 (ErbB2) | IC50 (ErbB4) | IC50 (PDGFRB) | IC50 (Zap-70) | IC50 (IGFR-1) | IC50 (c-Met) | IC50 (Kdr) | IC50 (Ret-1) | IC50 (Hck-1) | IC50 (Tek) | IC50 (EGFR) |
| --- | --- | --- | --- | --- | --- | --- | --- | --- | --- | --- | --- | --- | --- | --- | --- | --- | --- | --- | --- |
| COc1cc(Nc2ncnc(-n3c(NCc4cccc(F)c4)nc4ccccc43)n2)cc(OC)c1OC [Compound 513] | 6.98 to 8.97 µM | > 8.97 µM | 0.798 to 4.79 µM | > 8.97 µM | 0.798 to 4.79 µM | 6.98 to 8.97 µM | < 0.798 µM | < 0.798 µM | 6.98 to 8.97 µM | 4.79 to 6.98 µM | < 0.798 µM | > 8.97 µM | 6.98 to 8.97 µM | > 8.97 µM | < 0.798 µM | < 0.798 µM | > 8.97 µM | > 8.97 µM | 6.98 to 8.97 µM |
| COc1ccc(Nc2ncnc(-n3c(N)nc4ccccc43)n2)cc1 [Compound 656] | 10.5 to 13.5 µM | 7.2 to 10.5 µM | 1.2 to 7.2 µM | > 13.5 µM | 7.2 to 10.5 µM | 7.2 to 10.5 µM | 1.2 to 7.2 µM | 1.2 to 7.2 µM | 7.2 to 10.5 µM | 7.2 to 10.5 µM | 1.2 to 7.2 µM | > 13.5 µM | < 1.2 µM | 1.2 to 7.2 µM | < 1.2 µM | 1.2 to 7.2 µM | 7.2 to 10.5 µM | 1.2 to 7.2 µM | 7.2 to 10.5 µM |
